The values that follow come from PMC10804494 (BMC Complementary Medicine and Therapies, 2024).

The test system of data set [1] is highly pathogenic avian influenza A/chicken/Egypt/N12640A/2016 (H5N1). The data set can be described thus: microbe, parasite or virus in culture. Format: cell-based, influenza A/H5N1 virus.
Data set [2] deals with seasonal influenza A/Egypt/NRC098/2019(H1N1). The data set can be described thus: microbe, parasite or virus in culture. Format: cell-based. The note with it: H1N1, MDCK, 72 h.
For data set [3], the system named is influenza A/H5N1 virus. The data set can be described thus: microbe, parasite or virus in culture. Format: cell-based. Particulars: H5N1, MDCK, read-out: Viral inhibition percentage, Viral Replication.
The subject of data set [4] is influenza A/H5N1 virus. The data set can be described thus: microbe, parasite or virus in culture. Format: cell-based. The note with it: H5N1, MDCK, read-out: Viral inhibition percentage, Virucidal.
Data set [5] relates to influenza A/H5N1 virus. The data set can be described thus: microbe, parasite or virus in culture. The format is cell-based.
The subject of the next data set is influenza A/H5N1. Format: cell-based, influenza A/H5N1 virus.
The subject of another data set is influenza A/H1N1. The data set can be described thus: Plaque reduction assay, A/H1N1. The format is cell-based, influenza A/H1N1 virus. Particulars: A/H1N1, MDCK, low non-toxic concentrations, Fig. 4. Background: Plaques are areas of infected cells; plaque reduction assays count them against a control.
The nature of a further data set: in vitro. Particulars: dog.
The next data set has as its system MDCK cells. The note with it: dog.
For data set [6] the following is noted: cited from earlier work.
Data set [7] deals with IAV (A/Puerto Rico/8/1934(H1N1)). The note with it: A/Puerto Rico/8/1934(H1N1) in mice; cited from earlier work.
[8] abbreviates: Influenza A virus, H5N1, MDCK, 72 h.
Setting [9] is: Influenza A virus, H5N1, MDCK, read-out: Viral inhibition percentage, Viral Adsorption.

The structures appear in SMILES notation. ≈ marks a conversion by molar mass, not a printed value. Counter-ions that a name gives are not always drawn. Like-named read-outs stand apart in the source and are kept apart here.

Consider `CN1C2CC(OC(=O)C(CO)c3ccccc3)CC1C1OC12` (single isomer, unassigned; (-)) [(-)Scopolamine HCl], for which the midpoint of inhibition in data set [1] (setting [8]), the IC50, lay at 360 µg/mL.
Regarding `CN1C2CCC1CC(OC(=O)C(CO)c1ccccc1)C2` (stereo not shown) [Atropine sulphate], the IC50 in data set [1] (setting [8]) stood at 2.26 µg/mL; in data set [2], 0.204 µg/mL. Further, the results for the inhibition at 1 µg/mL with influenza A/H5N1 virus [3], with influenza A/H5N1 virus [4] and in the data set on influenza A/H5N1 virus [5] (setting [9]) were 32.8%, 90.5% and 36.2%, respectively. Further, the inhibition at 10 µg/mL in the data set on influenza A/H5N1 virus [3] was determined as 41.2%; with influenza A/H5N1 virus [4], 97.6%; in the data set on influenza A/H5N1 virus [5] (setting [9]) it was 45.2%. In addition, the inhibition at 100 µg/mL with influenza A/H5N1 virus [3] came to 52.9%; with influenza A/H5N1 virus [4], 100%; in the data set on influenza A/H5N1 virus [5] (setting [9]), 52.4%. The “reduction of viral titers (in words)” value with influenza A/H5N1 and with influenza A/H1N1 was “high capacity to reduce viral titers” in each case.
For the compound `Cn1c(=O)c2c(ncn2C)n(C)c1=O` [Caffeine], in data set [1] (setting [8]), half-maximal inhibition (IC50) required 85.7 µg/mL (≈ 441 µM). The CC50 in “in vitro” is greater than 10000 µg/mL.
Consider `COc1cc2c(c(OC)c1OC)-c1ccc(OC)c(=O)cc1[C@@H](NC(C)=O)CC2` [Colchicine, (S)-N-(1,2,3,10-tetramethoxy-9-oxo-5,6,7,9-tetrahydrobenzo[a]heptalen-7-yl)acetamide], for which the figures for the inhibition at 1 µg/mL with influenza A/H5N1 virus [3], with influenza A/H5N1 virus [4] and with influenza A/H5N1 virus [5] (setting [9]) were 85.7%, 25% and 55%, respectively. Besides, the inhibition at 10 µg/mL with influenza A/H5N1 virus [3] amounted to 87%; in the data set with influenza A/H5N1 virus [4], 38%; in the data set with influenza A/H5N1 virus [5] (setting [9]) it was 64.1%. The inhibition at 100 µg/mL with influenza A/H5N1 virus [3] was 91.1%; in the data set with influenza A/H5N1 virus [4], 47.1%; with influenza A/H5N1 virus [5] (setting [9]), 73%. Moreover, the “Viral inhibition percentage, Viral Adsorption” value in the data set with influenza A/H5N1 virus [5] is on record as 73.05%. Besides, the “reduction of viral titers (in words)” value in the data set on influenza A/H5N1 and in the data set with influenza A/H1N1 was “high capacity to reduce viral titers” in each case. In addition, the results for the CC50 in the data set on MDCK cells and in the data set “in vitro” were 3370 µg/mL (≈ 8440 µM) and 2380 µg/mL (≈ 5960 µM), respectively. The toxic range in [6] is recorded as 0.6 mg.
On to `CN[C@@H](C)[C@H](O)c1ccccc1` [Ephedrine HCl], for which the IC50 in data set [1] and in [1] (setting [8]) was 186 µg/mL each time. The CC50 in “in vitro” is greater than 10000 µg/mL.
Consider `COc1ccc(Cc2nccc3cc(OC)c(OC)cc23)cc1OC` [Papaverine HCl], for which the “anti-influenza activity against A/H5N1 virus (in words)” value in data set [1] is “poor anti-influenza activity”. Further, the CC50 in the data set “in vitro” came to 274 µg/mL.
As to `CC[C@@H]1C(=O)OC[C@@H]1Cc1cncn1C` [Pilocarpine HCl], the figures for the IC50 in [1] (setting [8]) and in data set [2] were 0.21 µg/mL and 0.637 µg/mL, respectively. In addition, the inhibition at 10 µg/mL in the data set on influenza A/H5N1 virus [3] was 35.3%; with influenza A/H5N1 virus [4], 94.9%; in the data set with influenza A/H5N1 virus [5] (setting [9]) it was 37.8%. In addition, the inhibition at 100 µg/mL with influenza A/H5N1 virus [3] worked out at 46.9%; with influenza A/H5N1 virus [4], 99.1%; with influenza A/H5N1 virus [5] (setting [9]), 44.6%. Also, the values for the inhibition at 1000 µg/mL with influenza A/H5N1 virus [3], with influenza A/H5N1 virus [4] and in the data set with influenza A/H5N1 virus [5] (setting [9]) were 53.1%, 100% and 56.9%, respectively. The “reduction of viral titers (in words)” value with influenza A/H5N1 and with influenza A/H1N1 was “high capacity to reduce viral titers” throughout. Also, the CC50 in “in vitro” worked out at 3320 µg/mL.
In “in vitro”, `C=C[C@H]1C[N@@]2CC[C@H]1C[C@@H]2[C@@H](O)c1ccnc2ccc(OC)cc12` [Quinidine Sulphate, Quinidine sulphate] returned a CC50 greater than 10000 µg/mL.
In the case of `C=C[C@H]1C[N@@]2CC[C@H]1C[C@H]2[C@H](O)c1ccnc2ccc(OC)cc12` [Quinine sulphate], the “anti-influenza activity against A/H5N1 virus (in words)” value in data set [1] is listed as “no anti-influenza activity”. In data set [7], the “antiviral effect in mice (in words)” value is “exert an antiviral effect”. Besides, the CC50 in “in vitro” is greater than 10000 µg/mL.
Compound `C[n+]1cccc(C(=O)[O-])c1` [Trigonelline HCl] showed a CC50 in “in vitro” greater than 10000 µg/mL.
Turning to `CC(=O)N[C@H]1[C@H]([C@H](O)[C@H](O)CO)OC(C(=O)O)=C[C@@H]1N=C(N)N` [Zanamivir], the IC50 in [1] (setting [8]) was 0.358 µg/mL (≈ 1.08 µM); in [2], 0.265 µg/mL (≈ 0.797 µM). For the same compound, the CC50 in the data set “in vitro” is greater than 10000 µg/mL.

For orientation: IC50 means the concentration at which inhibition is half-maximal. For orientation: inhibition means the relative decrease from the control value, in per cent.
